Results: PMC7432838, “A Curcumin Analog Exhibits Multiple Biologic Effects on the Pathogenesis of Alzheimer’s Disease and Improves Behavior, Inflammation, and β-Amyloid Accumulation in a Mouse Model” (International Journal of Molecular Sciences, 2020)
“And” between values parts separate entries of the source, which are not always exact repeats. Identical values can stand only once.

Columns and labels:
[1] = Pharmacokinetic study after oral administration in SD rats; assay type: in vivo, rat
Protocol: In order to evaluate the bioavailability of curcumin and its analog TML-6, pharmacokinetic studies were commissioned and conducted by the Development Center for Biotechnology (DCB, Taipei, Taiwan). The kinetics of curcumin and TML-6 in blood were collected at 0.25, 0.5, 1, 2, 4, 6, 8 and 10 h after oral administration of curcumin and TML-6 at the dose of 150 mg/kg in male Sprague–Dawley Rats.

[2] = Cytotoxicity assay by Cell Counting Kit-8 (CCK-8); assay type: cell-based, human; settings: human, Huh-7 cells; Huh-7, 24 h
Protocol: The cytotoxicity assay was performed using the Cell Counting Kit-8 (CCK-8, Sigma). We dissolved 0.0524 g of TML-6 (molecular weight is 523.62 g/mol) in 10 mL DMSO to obtain TML-6 stock at 10 mM for cell line study. […] Briefly, Huh-7 cells were seeded overnight in 96-well plates at 5000 cells/well and then subjected to traditional curcumin or TML-6 treatment for 24 h. At each time point, a CCK-8 solution (0.25 mg/mL) was added to the medium in each well for an additional 4 h incubation, and absorbance was measured at 570 nm using an ELISA reader.

[3] = tested on: Aβ42 production in N2a/APPswe stable cells; assay: Aβ42 ELISA of culture medium; assay type: cell-based, mouse; settings: 24 h
Protocol: (§1) Extracellular levels of soluble Aβ40 and Aβ42 were determined by LEGEND MAX™ β-Amyloid x-40 and X-42 ELISA Kit (Biolegend, San Diego, CA, USA). Overexpression of the APP Swedish mutation (APPswe) in the N2a neuronblastoma cell line was called the N2a/APPswe cell line. N2a/APPswe stable cells were seeded at 8 × 10^5 cells in 6 cm dishes. After overnight incubation, the cells were treated with curcumin and TML-6 for 24 h. […] The culture supernatant was collected and centrifuged at 1500× g at 4 °C for 5 min to remove cells. The culture supernatants from various treatments were conducted to examine the Aβ levels according to the manufacturer’s instructions. The samples for the detection of soluble Aβ levels were diluted in the supernatant at a 1:10 dilution for this experiment. Levels of soluble Aβ were detected by measuring the OD at 620 nm (Molecular Devices, San Jose, CA, USA). The calculation of Aβ levels was based on the standard curves of Aβ40 and Aβ42, respectively.

[4] = tested on: Apo E in Huh-7 cells; assay: Western blotting of ApoE protein expression; assay type: cell-based, human; settings: 2.62 µg/mL, 24 h, vs medium and curcumin control
Protocol: (§2) After cells were seeded and treated with curcumin and TML-6 for 24 h, cells were washed with ice-cold PBS (Phosphate Buffered Saline) and lysed with 100 μL of RIPA cell lysis buffer (Pierce Biotechnology, Rockford, IL, USA) supplemented with protease and phosphatase inhibitors (Roche Diagnostics, Mannheim, Germany). Cell lysates were further cleaned by centrifugation at 14,000 rpm at 4 °C for 15 min. Protein concentration was determined using a Bradford assay (Bio-Rad, Hercules, CA, USA). For Western blot analysis, 20 μg of each sample was prepared for SDS-PAGE (SDS Poly-acrylamide-gel-electrophoresis) and denatured at 95 ℃ for 10 min. The samples prepared from total lysates were loaded and separated by SDS-PAGE (8% or 10%), and then transferred to PVDF membranes (pore size 0.45 μm; PerkinElmer, Waltham, MA, USA) by semi-dry transfer cell (Bio-Rad). After blocking with 5% skim milk in PBS-T (0.1% Tween-20), the membranes were hybridized with primary antibodies at 1/1000 dilution at 4 °C overnight. On the next day, membranes were washed with PBS-T followed by incubation with HRP-conjugated anti-mouse or anti-rabbit secondary antibody (DAKO, Santa Clara, CA, USA) at 1/5000 dilution at room temperature for 1 h as appropriate. […]

[5] = Brain penetration study in AD transgenic mice after oral dosing; assay type: in vivo, mouse; settings: oral dose of 150 mg/kg
[6] = tested on: phospho-NF-κB in Huh-7 cells; assay: Western blotting of phosphorylated NF-κB; assay type: cell-based, human; settings: 24 h, vs medium control
Protocol: as §2

[7] = tested on: Aβ40 production in N2a/APPswe stable cells; assay: Aβ40 ELISA of culture medium; assay type: cell-based, mouse; settings: 24 h
Protocol: as §1

[8] = tested on: rat; assay: Preliminary toxicological experiments in the rat model; assay type: in vivo; settings: preliminary data
[9] = tested on: APP (amyloid precursor protein) in Huh-7 cells; assay: Western blotting of APP protein expression; assay type: cell-based, human; settings: 24 h, vs medium control
Protocol: as §2

[10] = Brain penetration study in normal mice after oral dosing; assay type: in vivo; settings: oral dose of 150 mg/kg, normal mouse brain
[11] = tested on: phospho-mTOR in Huh-7 cells; assay: Western blotting of phospho-mTOR; assay type: cell-based, human; settings: for phospho-mTOR suppression (Western blot, in words): Huh-7, 24 h
Protocol: After cells were seeded and treated with curcumin and TML-6 for 24 h, cells were washed with ice-cold PBS (Phosphate Buffered Saline) and lysed with 100 μL of RIPA cell lysis buffer (Pierce Biotechnology, Rockford, IL, USA) supplemented with protease and phosphatase inhibitors (Roche Diagnostics, Mannheim, Germany). Cell lysates were further cleaned by centrifugation at 14,000 rpm at 4 °C for 15 min. Protein concentration was determined using a Bradford assay (Bio-Rad, Hercules, CA, USA). For Western blot analysis, 20 μg of each sample was prepared for SDS-PAGE (SDS Poly-acrylamide-gel-electrophoresis) and denatured at 95 ℃ for 10 min. The samples prepared from total lysates were loaded and separated by SDS-PAGE (8% or 10%), and then transferred to PVDF membranes (pore size 0.45 μm; PerkinElmer, Waltham, MA, USA) by semi-dry transfer cell (Bio-Rad). After blocking with 5% skim milk in PBS-T (0.1% Tween-20), the membranes were hybridized with primary antibodies at 1/1000 dilution at 4 °C overnight. On the next day, membranes were washed with PBS-T followed by incubation with HRP-conjugated anti-mouse or anti-rabbit secondary antibody (DAKO, Santa Clara, CA, USA) at 1/5000 dilution at room temperature for 1 h as appropriate. Finally, the images were captured by Amersham Imager 600 (GE Healthcare Life Sciences, Marlborough, MA, USA) after being developed using the chemiluminescent HRP substrate (Millipore, Bedford, MA, USA). The primary antibodies used in this study were anti-APP, anti-NF-κB (Cell Signaling Technology, Danvers, MA, USA), anti-Apo E, anti-p-mTOR (Abcam, Cambridge, MA, USA).

[12] = tested on: Nrf2 promoter in Huh-7 cells; assay: Nrf2 promoter Dual-Luciferase reporter assay; assay type: cell-based, human
Protocol: To examine the activities of the anti-oxidative gene NrF2, Huh-7 cells were seeded in 24-well culture plates and then co-transfected with serial dilution of pG5-Nrf2-Luc (firefly luciferase) with the pRL-TK Renilla luciferase reporter. Following overnight incubation, the transfected cells were treated with traditional curcumin and TML-6 compounds for additional 24 h. The luciferase reporter assay was performed using the Dual-Luciferase Reporter assay system (Promega, Madison, WI, USA). The cell lysates were assayed for both firefly and Renilla luciferase activities. The relative luciferase units (RLU) were measured using a luminometer (GLOMAX Multi, Promega). Firefly luciferase activity was normalized for transfection efficiency using the Renilla luciferase activity in each lysate as the control. The RLUs are expressed as means plus standard deviation of three independent experiments.

[13] = tested on: human neuroglioma H4-APP751 stable cell line; design: method as in PMID 20622013; settings: 15 and 20 μM, no cytotoxicity; cited from earlier work
[14] = tested on: rat neuroblastoma B104-APP751 stable cell line; design: method as in PMID 20622013; settings: 15 and 20 μM, no cytotoxicity; cited from earlier work
[15] = male, Sprague-Dawley, rat, in vivo, po, 150 mg/kg

## CCN(CC)C(=O)CC(C)(C(=O)/C=C/c1ccc(OC)c(OC)c1)C(=O)/C=C/c1ccc(OC)c(OC)c1 [TML-6]
[1]; [15]
  Cmax: 35.9 ± 15.6 ng/mL
  MRT: 3.91 ± 0.62 h
  Tmax: 3.67 ± 2.08 h
  half-life: 1.27 ± 0.51 h
[1]; male, Sprague-Dawley, rat, in vivo, po, 150 mg/kg, AUC(0-8)
  AUC(0-t): 181 ± 78.7 ng·h/mL
[1]; male, Sprague-Dawley, rat, in vivo, po, 150 mg/kg, AUC(0-last)
  AUC(0-t): 177 ± 76.8 ng·h/mL
[2]
  IC50 at 24 h: 4.19 µg/mL and 8 µM
[3]; 3.14 µg/mL, culture medium
  Aβ42 level, reduced to % as compared with control group: ~80%
[4]
  induction of ApoE protein expression level: approximately 44%
[5]; brain relative to plasma, AD transgenic mouse, read-out: brain level as % of the plasma pK levels
  Kp: 0.1
[5]; AD transgenic mouse brain, preliminary
  level detected in brain: 3 ng/mL
[6]; 1.96 µg/mL
  decrease of phosphorylated NF-κB level: about 50%
[7]; 3.14 µg/mL, culture medium
  Aβ40 level, reduced to % as compared with control group: approximately 86%
[8]
  toxicity in the rat model (in words): no obvious toxicity
[9]; 1.96 µg/mL
  reduction of APP protein expression level: 60%
[10]
  detection in brain: could not be detected
[11]
  phospho-mTOR suppression (Western blot, in words): suppressed in all the concentrations
[11]; TML-6 5.24 µg/mL gives same level as curcumin 20 µg/mL
  potency of phospho-mTOR reduction relative to curcumin: about 4 fold
[11]; dose below IC50 (0.65~3.93 µg/mL), 24 h
  average reduction of phospho-mTOR: about 30%
[12]; Huh-7, 24 h, luciferase reporter
  concentration of highest Nrf2 transcriptional activation: 1.32 µg/mL
[12]; Huh-7 transiently transfected with Nrf2 promoter
  concentration beyond which cytotoxicity was found in Nrf2 promoter-transfected cells: > 5240 ng/mL
[12]; TML-6 at 1.32 µg/mL vs curcumin 10 µg/mL, Huh-7, 24 h
  Nrf2 promoter activity, fold stronger than traditional curcumin at 10 µg/mL: 12.1 fold
[12]; TML-6 at 1.32 µg/mL vs curcumin 20 µg/mL, Huh-7, 24 h
  Nrf2 promoter activity, fold stronger than traditional curcumin at 20 µg/mL: 6.6 fold

## curcumin [reference compound]
[1]; SD rats, oral 150 mg/kg
  blood concentrations at each time point: not detectable
[3]; different doses up to 20 µg/mL
  Aβ42 level vs control (in words): increased to levels higher than those of the control
[6]; 10 µg/mL
  decrease of phosphorylated NF-κB level: 35%
[7]; different doses up to 20 µg/mL
  Aβ40 level vs control (in words): increased to levels higher than those of the control
[9]; 5 µg/mL
  reduction of APP protein expression level: 30%
[13]
  Aβ40 and Aβ42 levels (in words): significantly decreased
[11]
  phospho-mTOR suppression (Western blot, in words): suppressed in a dose-dependent manner
[14]
  Aβ40 and Aβ42 levels (in words): significantly decreased
